Measurements as given in the NIST ThermoML archive (doi:10.1021/je034188o).

Experiment: cn = amount concentration of the nth substance listed, in mol/dm3
Settings: 101 kPa, Liquid

C1COCCOCCOCCOCCOCCO1 [1,4,7,10,13,16-hexaoxacyclooctadecane] + ClC(Cl)(Cl)Cl
Settings | mass density [kg/m3]
293.15 K, c1 = 0.06567 | 1586.34
293.15 K, c1 = 0.09829 | 1582.87
293.15 K, c1 = 0.1283 | 1579.71
293.15 K, c1 = 0.1856 | 1573.71
293.15 K, c1 = 0.2464 | 1567.44
293.15 K, c1 = 0.3256 | 1559.42
298.15 K, c1 = 0.06528 | 1576.94
298.15 K, c1 = 0.09771 | 1573.63
298.15 K, c1 = 0.1275 | 1570.6
298.15 K, c1 = 0.1846 | 1564.86
298.15 K, c1 = 0.2451 | 1558.88
298.15 K, c1 = 0.3239 | 1551.22
303.15 K, c1 = 0.0649 | 1567.64
303.15 K, c1 = 0.09714 | 1564.39
303.15 K, c1 = 0.1268 | 1561.42
303.15 K, c1 = 0.1835 | 1555.75
303.15 K, c1 = 0.2436 | 1549.77
303.15 K, c1 = 0.322 | 1542.04
308.15 K, c1 = 0.06453 | 1558.35
308.15 K, c1 = 0.09662 | 1555.25
308.15 K, c1 = 0.1261 | 1552.41
308.15 K, c1 = 0.1827 | 1547.01
308.15 K, c1 = 0.2426 | 1541.36
308.15 K, c1 = 0.3209 | 1534.08

C1COCCOCCOCCOCCOCCO1 [1,4,7,10,13,16-hexaoxacyclooctadecane] + O
Settings | mass density [kg/m3]
293.15 K, c1 = 0.0406 | 999.92
293.15 K, c1 = 0.07841 | 1001.5
293.15 K, c1 = 0.1209 | 1003.25
293.15 K, c1 = 0.1782 | 1005.57
293.15 K, c1 = 0.2079 | 1006.75
293.15 K, c1 = 0.2528 | 1008.52
293.15 K, c1 = 0.3203 | 1011.12
298.15 K, c1 = 0.04054 | 998.67
298.15 K, c1 = 0.07831 | 1000.21
298.15 K, c1 = 0.1207 | 1001.91
298.15 K, c1 = 0.1779 | 1004.16
298.15 K, c1 = 0.2076 | 1005.32
298.15 K, c1 = 0.2524 | 1007.03
298.15 K, c1 = 0.3198 | 1009.57
303.15 K, c1 = 0.04049 | 997.39
303.15 K, c1 = 0.0782 | 998.84
303.15 K, c1 = 0.1205 | 1000.51
303.15 K, c1 = 0.1777 | 1002.72
303.15 K, c1 = 0.2073 | 1003.84
303.15 K, c1 = 0.252 | 1005.51
303.15 K, c1 = 0.3193 | 1008
308.15 K, c1 = 0.04042 | 995.61
308.15 K, c1 = 0.07806 | 997.09
308.15 K, c1 = 0.1203 | 998.72
308.15 K, c1 = 0.1774 | 1000.89
308.15 K, c1 = 0.2069 | 1001.99
308.15 K, c1 = 0.2515 | 1003.65
308.15 K, c1 = 0.3187 | 1006.08

ClC(Cl)(Cl)Cl [tetrachloromethane] + C1COCCOCCOCCOCCOCCO1
c2 = 0
Settings | mass density [kg/m3]
293.15 K | 1593.39
298.15 K | 1583.71
303.15 K | 1574.2
308.15 K | 1564.65
